# Results taken from US9611276B2, “Imidazo bicyclic iminium compounds as antitumor agents” (THE BOARD OF TRUSTEES OF THE LELAND STANFORD JUNIOR …, priority 2012, dated 2017).
# System: Hh pathway activity
# Test: Shh-LIGHT2 cell assay with ShhN-conditioned medium
# Assay type: cell-based
# Protocol: Shh-LIGHT2 cells [see Taipale et al. Nature. 2000; 406(6799):1005-9], an NIH-3T3-based cell line containing a stably integrated Gli-responsive firefly luciferase reporter (8XGliBS-FL) and constitutive Renilla luciferase reporter (pRLTK, Promega), were cultured in DMEM (Invitrogen, 11965) containing 10% (v/v) calf serum [the American Type Culture Collection (ATCC), 30-2030], 150 μg/mL zeocin (Invitrogen, R250-01), 400 μg/mL G418 (Invitrogen, 11811), 1 mM sodium pyruvate (Invitrogen, 11360) and 1× PenStrep.
# All test compounds were dissolved in DMSO at 50 mM, serially diluted by 1:3, 1:4 or 1:5 in a 96-well translucent microplate (Greiner bio-one, 650201) and stored at −20° C. These serial dilutions were added to assay media freshly with final DMSO concentration of 0.2% (v/v).
# The Shh-LIGHT2 cell assay provides a measure of Hh pathway activity. ShhN-conditioned medium was prepared by culturing a Shh-N-producing HEK 293 cell line [see Chen et al. Proc Natl Acad Sci USA. […] The cells were lysed with passive lysis buffer (50 μL/well), and 10 μL of the obtained lysate were analyzed for firefly and Renilla luciferase activities using Dual-Luciferase Reporter Assay System (Promega, E1960) (50 μL/well of each reagent) on a microplate luminometer (Veritas). Biological triplicates were analyzed for each test compounds.
smiles,measurement,setting,value
CCOc1ccc(-[n+]2cc(-c3ccc(Br)cc3)n3c2CCCCC3)cc1 [Compound A-1],Inhibition of Hh pathway activity,Shh-LIGHT2 cells stimulated with ShhN,inhibits Hh pathway activity
same,IC50,"Shh-LIGHT2 w/ ShhN, read-out: IC50, firefly luciferase",6.6 µM
